Experiment [1] concerns unfolded protein response (UPR). The conditions noted are these: very low doses; reference 22; cited from earlier work.
For a further experiment, the system named is ABCA1 protein. Nature of the experiment: ABCA1 immunoblot of total and cell-surface protein in cholesterol-loaded macrophages. Format: cell-based, mouse. The procedure:
Macrophages were pre-incubated for 14 h with 50 μg/ml acetyl-LDL in DMEM, 0.2% BSA, in the absence (CE) or presence (FC) of 58035. The cells were then incubated for 5 h with 100 μg/ml acetyl-LDL in DMEM, 0.2% BSA, in the absence or presence of 58035, respectively, with no further additions (Control) or in the presence of 10 μg/ml cycloheximide, 50 μM ALLN, or 50 μM lactacystin as indicated. Aliquots of cell lysates were then assayed for ABCA1 and β-actin protein by immunoblot analysis.
Macrophages were pre-incubated for 14 h with 50 μg/ml acetyl-LDL in DMEM, 0.2% BSA, in the absence (CE) or presence (FC) of 58035. […] Aliquots of total cell protein (top panel) or cell-surface protein (bottom panel) were then subjected to immunoblot analysis for ABCA1 and the standards β-actin or β1-integrin.
Macrophage monolayers in 35-mm dishes were washed with ice-cold PBS 3 times and then incubated with ice-cold PBS containing 0.5 mg/ml NHS—SS-biotin (Pierce) for 30 minutes at 4° C. After washing 5 times with ice-cold PBS containing 20 mM Tris-HCl, pH 8.0, the cells were scraped into PBS and pelleted by centrifugation. The pelleted macrophages were lysed in 50 μl RIPA buffer (0.5% sodium deoxycholate, 0.1% SDS, 1% Triton X-100, 20 mM Tris, 150 mM NaCl, and 5 mM EDTA, pH 8) containing 1 mM PMSF. […] of the lysate were subjected directly to 4-20% gradient SDS-polyacrylamide gel electrophoresis (SDS-PAGE) for determination of total ABCA1. The rest of the cell lysate was affinity-purified to isolate biotinylated proteins. Briefly, the cell lysates were diluted to 150 μl in RIPA buffer and incubated with 50 μl immobilized streptavidin agarose (Pierce), which was pre-washed three times with RIPA buffer at 0° C. for 2 h with gentle shaking. The agarose was pelleted by centrifugation using a microcentrifuge at 5,000 rpm for 2 min; the pellet was resuspended in 1 ml RIPA buffer, and the process was repeated 5 times. The agarose was resuspended 30 μl SDS-PAGE loading buffer containing 330 mM β-mercaptoethanol at 37^6C for 15 min and subjected to SDS-PAGE as above. ABCA1 and β-integrin were detected by Western blot using anti-ABCA1 and anti-β-integrin anti-sera. The blots were reprobed with anti-β-actin antibody, which detected no actin signal, thus verifying that no cytosolic protein was biotinylated by the procedure.
Peritoneal macrophages were lysed in RIPA buffer containing 1 mM PMSF. Nuclei were removed by centrifugation at 3000×g for 10 min at 4° C. […] For Western blot detection of ABCA1, anti-ABCA1 antiserum was used. Signals were detected using HRP-conjugated secondary anti-bodies (Bio-Rad) and ECL (Amersham Pharmacia Biotech). The membranes were reprobed with anti-β actin monoclonal antibody or anti-β1-integrin anti-serum for the proper internal controls. The relative intensities of the bands were determined by densitometry.
On the technique in general: A western blot detects proteins with antibodies after separation by electrophoresis.

Molecules are shown by their SMILES.

With `CCN(CC)CCO[C@H]1CC[C@@]2(C)C(=CC[C@@H]3[C@@H]2CC[C@]2(C)C(=O)CC[C@@H]32)C1` [U18666A, 3-β-[2-(diethylamino)ethoxy]androst-5-en-17-one], the “block of UPR activation in FC-loaded cultured macrophages” value in experiment [1] is “almost completely”. Besides, in the experiment with ABCA1 protein (70 nM (FIG. 13, top panel)), the “ABCA1 protein loss in free cholesterol-loaded cells (total protein)” value is given as “protected from the ABCA1 protein loss”. In addition, in the experiment with ABCA1 protein (70 nM, FC-loaded cells (FIG. 13, bottom panel), 60% in untreated cells), the “decrease of cell-surface ABCA1 protein” value is reported as “about 15%”. The “ABCA1 protein expression in free cholesterol-loaded cells” value with ABCA1 protein (low concentrations) is listed as “markedly enhance”.

These data come from patent publication US20040259853A1, “Methods for preventing acute clinical vascular events in a subject” (The Trustees of Columbia University, priority 2000, published 2004).
